# Test results published in the SangsterLogP compilation.
# Assay: method code SF, from Hansch, C. & Leo, A. (1987). Log P database [Dataset]. Pomona College Medicinal Chemistry Project.
SMILES,logP,also measured
OC(c1ccccc1)(c1ccccc1)c1ccccc1,3.68,
CN(C)Cc1ccco1,1.19,
CCOC(=O)C(=Cc1ccccc1)C(C)=O,2.21,
CC(=O)c1ccc(N(C)C)cc1,,logD (pH 7.0): 2.1
O=C(CO)OCc1ccccc1,1.12,
CC(=NO)c1ccsc1,1.81,
COC(=O)c1ccccc1NC(C)=O,1.65,
NC(=S)NN=Cc1cccc(O)c1,1.61,
CCOc1cn[nH]c1,0.8,
COc1ccc(C=C(C(C)=O)C(C)=O)cc1,1.73,
NC(=O)c1ccoc1,0.09,
Cc1c([N+](=O)[O-])cc(C(N)=O)cc1[N+](=O)[O-],0.68,
O=C(NC(CO)C(O)c1ccc(NC(=O)C2CC2)cc1)C(Cl)Cl (configuration not stated),0.75,
NS(=O)(=O)Nc1ccccc1,0.4,
O=C(NO)c1ccccc1,0.26,
CCOP(=S)(OCC)Oc1ccc(SC)c(Cl)c1,5.06,
CCc1ccccc1OC(C)=O,2.42,
CC(C)Oc1ccccc1O,2.09,
O=[N+]([O-])/C=C/c1ccc(Cl)cc1Cl,3.26,
CC(C)c1ccccc1SCc1c(O)c(C(=O)O)cc2ccccc12,5.06,
Cn1ccc(=O)c2ccccc21,0.44,
c1cncc(CN2CCCCC2)c1,,logD (pH 11.0): 1.49
N#CN/C(N)=N/c1ccccc1,1.05,
CCOC(=O)C(=Cc1ccccc1Cl)C(=O)OCC,3.15,
N=c1ccccn1O,,logD (pH 7.4): -0.87
O=S(=O)(Nc1cn[nH]c1)c1ccccc1,0.87,

SMILES,logP,also measured
CC(=O)c1ccc([C@@H](O)[C@@H](CO)NC(=O)C(Cl)Cl)cc1,0.57,
Clc1ccc2[nH]c(CCCCc3nc4cc(Cl)ccc4[nH]3)nc2c1,1.85,
NNc1ccccc1,,logD (pH 8.9): 1.25
C=CCO,0.17,
COc1ccc2c(=O)c(C)c(C(C)C)oc2c1,3.39,
Nc1ncnc2c1ncn2[C@@H]1O[C@H](CO)[C@@H](O)[C@@H]1O,-1.11,
CC(C)c1ccccc1OC(=O)N(C)C,2.65,
CCCCNC(N)=O,0.41,
CCC(=O)OCC(=O)[C@@]1(OC(=O)CC)[C@@H](C)C[C@H]2[C@@H]3CCC4=CC(=O)C=C[C@]4(C)[C@@]3(F)[C@@H](O)C[C@@]21C,4.07,
OCC(Br)(Br)Br,2.1,
CC(=O)Nc1ccc(S(C)(=O)=O)cc1,0.58,
Cc1cc(COc2ccccc2C(C)C)c(O)c(C(=O)O)c1,4.91,
N#Cc1c[nH]c(=O)[nH]c1=O,,logD (pH 1.0): -0.93
O=C(CCl)Nc1ccccc1,1.63,
Cc1cccc(/N=N/N(C)C)c1,2.85,
CCC(CC)C1=Nc2ccccc2S(=O)(=O)N1,1.88,
Cn1ccc(=O)[nH]c1=O,-1.2,
CC1(C)Cc2cccc(O)c2O1,2.08,
O=CC(CO)OC(C=O)n1cnc2c(O)ncnc21 (configuration not stated),-2.11,
O=C(O)CSCc1ccccc1,2.1,
CC1CCC(O)CC1 (configuration not stated),1.79,
NC(=O)c1nc[nH]c1N=NN(CCO)Cc1ccccc1,,logD (pH 4.2): 0.99
Clc1ccc2ncccc2c1,2.73,
CCOC(=O)C(=Cc1ccccc1Cl)C(C)=O,2.84,
O=S(=O)(N=[N+]([O-])c1ccccc1)c1ccccc1,2.33,
CCN(CC)CCc1cccnc1,,logD (pH 11.0): 1.23

SMILES,logP,also measured
CC1=Nc2c(Cl)cccc2S(=O)(=O)N1,0.72,
CCOC(=O)NC(O)C(Cl)(Cl)Cl (configuration not stated),1.84,
O=[N+]([O-])c1ccc(N2CCCCC2)cc1,3.26,
COc1cc(/C=N/O)ccc1OCCOC(=O)c1ccc(Cl)cc1,3.92,
O/N=C/CCc1ccccc1,,logD (pH 7.4): 1.56
C#CCN(C)/N=N/c1nc[nH]c1C(N)=O,,logD (pH 7.4): 0.33
O=[N+]([O-])c1ccsc1,1.55,
NN(c1ccccc1)c1ccccc1,,logD (pH 13.0): 2.8
N#CN=[N+]([O-])c1ccc(Cl)cc1,2.33,
NC(=O)c1ccc(C(F)(F)F)cc1,1.71,
Cc1cccs1,2.33,
Cc1c(N(C)C)c(=O)n(CCO)c(=O)n1-c1ccccc1,,logD (pH 7.4): 1.12
O=[N+]([O-])c1ccc(OCCn2ccnc2)cc1,1.69,
CCN(CC)CCNc1ccc(C)c(Cl)c1,4.14,
CCOC(=O)CON=Cc1ccc(OCCOC(=O)CC)c(OC)c1,2.39,
CON=C(C(=O)NC1C(=O)N2C(C(=O)OCOC(=O)C(C)(C)C)=C(CSc3nnnn3C)CSC12)c1csc(N)n1 (configuration not stated),,logD (pH 6.6): 1.74
CN[C@@H](C)Cc1ccccc1,,logD (pH 13.0): 2.07
CC(=O)N[C@@H]1CC(=O)N(c2ccccc2)C1=O,-0.33,
CN(C)/N=N/c1cccc(C(F)(F)F)c1,3.78,
O=[N+]([O-])C=Cc1ccoc1,1.41,
OC(c1ccccc1)c1ccccn1 (configuration not stated),,logD (pH 8.0): 1.52
CCOCCCl,0.98,
FC(F)(F)c1ccc2cccnc2c1,,logD (pH 7.0): 3.02
C=CCc1ccccc1,3.23,
CC1CO1 (configuration not stated),0.03,
CN(C)C(=O)Oc1ccccc1Br,2.17,

SMILES,logP,also measured
COc1cc(OCCOC(=O)c2ccccc2)ccc1C=NO,2.94,
CN(C)C=CCCc1cccnc1,,logD (pH 11.0): 1.68
CC(=O)C(=Cc1cccc(Cl)c1)C(C)=O,2.26,
CCOc1cc(Cc2cnc(N)nc2N)cc(OCC)c1,,logD (pH 13.0): 2.52
CC(C)n1cc(C(C)(C)C)nc1SSc1nc(C(C)(C)C)cn1C(C)C,4.1,
COc1nnccc1N(C)C,0.9,
CC(=O)Nc1ccc2c(c1)[nH]c1ccccc12,3.02,
O=C(/C=C/c1ccccc1)Nc1ccccc1,3.61,
O=C(CCl)Nc1ccc(Cl)c(Cl)c1,3.29,
O=c1[nH]nnc2ccccc12,0.83,
COC(=O)[C@@]12OC[C@@]34[C@H](C[C@@H]5C(C)=C(O)C(=O)C[C@]5(C)[C@H]3C(O)C1O)OC(=O)C(OC(=O)C=C(C)C(C)C)[C@@H]42 (some centres not stated),1.66,
O=S1(=O)NC(c2cccs2)=Nc2ccccc21,1.68,
O=[N+]([O-])c1ccc2[nH]ccc2c1,2.53,
N#C/C(=C\c1ccccc1)C(N)=O,1.5,
O=C(Nc1ccc(Cl)c(Cl)c1)c1ccccc1,4.42,
N#CN=[N+]([O-])c1ccc([N+](=O)[O-])cc1,1.51,
Cn1ncc2ccccc2c1=O,0.61,
C=C(C)CC1(CC)C(=O)NC(=S)NC1=O,2.19,
S=c1cccc[nH]1,-0.13,
CN(C)CC(CN1c2ccccc2Sc2ccccc21)N(C)C (configuration not stated),4.76,
CCC(=O)c1ccncc1,0.77,
O=C(CNC(=O)c1ccccc1)Oc1ccccc1,2.31,
Cc1ccc2[nH]c(=O)[nH]c(=O)c2c1,0.55,
CCOC(=O)c1csc(C=Cc2ccc([N+](=O)[O-])o2)n1,1.3,
CCOC(=O)C(=Cc1ccccc1)C(=O)OCC,3.13,
NCc1ccc([N+](=O)[O-])cc1,,logD (pH 13.0): 1.06

SMILES,logP,also measured
O=C(O)c1cc(=O)c2c(OCC(O)COc3cccc4oc(C(=O)O)cc(=O)c34)cccc2o1,1.92,
O=S1(=O)N=C(C2CC=CCC2)Nc2ccccc21 (configuration not stated),2.05,
CN(C(=O)CCI)c1ccc(S(=O)(=O)N(C)C)cc1,1.39,
COc1cc(C=O)ccc1OCCO,0.58,
CC=CC1=Nc2cc(Cl)ccc2S(=O)(=O)N1,1.96,
CCC(=Cc1ccccc1)[N+](=O)[O-],2.86,
CCNC(=S)Nc1ccccc1,1.42,
O=C(O)CNC(=O)c1ccccc1,,logD (pH 1.0): 0.31
O=C1CCC2CCCCC2C1 (configuration not stated),1.97,
FC(F)OC(Cl)C(F)(F)F (configuration not stated),2.06,
O=P1(NCCCl)OCCCN1CCCl (configuration not stated),0.86,
CC(O)C(C)(C)C(O)C(=O)OCC1=CC[N+]2([O-])CCC(O)C12 (configuration not stated),,logD (pH 7.4): -1.52
O=NN(CCCl)C(=O)NC1CCC(O)CC1 (configuration not stated),1.11,
Nc1ncnc2nc(-c3ccccc3)[nH]c12,,logD (pH 7.3): 2.31
c1cncc(CCN2CCCC2)c1,,logD (pH 11.0): 1.34
CC(=O)Oc1cccc(C(F)(F)F)c1,2.63,
Cn1cc(C(=O)O)c2ccccc21,,logD (pH 2.0): 1.76
NC(=O)c1ccc(O)cc1,0.33,
NS(=O)(=O)c1cccc(OC(=O)CNC(=O)c2ccccc2)c1,0.84,
Cc1cc(CSc2ccccc2C(C)C)c(O)c(C(=O)O)c1,4.36,
Cc1c(N(C)C)c(=O)n(C)c(=O)n1-c1ccc(Cl)cc1,,logD (pH 7.4): 2.32
Cc1ccc(C(=O)c2ccncc2)cc1,2.51,
Cc1ccc2c(=O)[nH]c(=O)[nH]c2c1,0.55,
Cc1ccco1,1.85,
CCCN(CCC)/N=C/c1c2c(O)c3c(O)c(C)c4c(c3c1O)C(=O)C(C)(O/C=C\C(OC)C(C)C(OC(C)=O)C(C)C(O)C(C)C(O)C(C)/C=C\C=C(C)C(=O)N2)O4 (configuration not stated),3.83,
CC(=O)Nc1cc2c(cc1Cl)S(=O)(=O)NC(C)=N2,0.53,

SMILES,logP,also measured
CC1(C)O[C@@H]2C[C@H]3[C@@H]4CCC5=CC(=O)C=C[C@]5(C)[C@@]4(F)[C@@H](O)C[C@]3(C)[C@]2(C(=O)CO)O1,2.53,
NN1CCCCC1,,logD (pH 9.0): -0.28
Brc1ccc2ncccc2c1,,logD (pH 7.0): 2.83
CC(C(=O)N(C)c1ccc(S(=O)(=O)N(C)C)cc1)c1ccccc1 (configuration not stated),1.73,
S=P(N1CC1)(N1CC1)N1CC1,0.53,
N#CN=[N+]([O-])c1ccccc1,1.87,
Cc1cccc(Cl)c1,3.28,
CC(C)CCC(=O)c1ccoc1,2.76,
O=NN(Cc1ccccc1)c1ccccc1,3.38,
CC1=Nc2c(C)cccc2S(=O)(=O)N1,0.52,
CCOP(=O)(N=C1SCC(C)S1)OCC (configuration not stated),1.04,
O=C(c1ccncc1)c1ccc([N+](=O)[O-])cc1,1.76,
CN(C)C(=O)c1cccs1,0.75,
O=c1[nH]cc(CO)c(=O)[nH]1,-1.94,
CC(=O)Nc1ccc2c(c1)S(=O)(=O)c1ccccc1C2=O,2.35,
COc1ccc2c(c1)N=C(C)NS2(=O)=O,0.56,
COc1ccc(-c2nc3cnccc3[nH]2)c(OCCCCl)c1,3.53,
Cc1ccc2[nH]c(C(O)C(O)c3nc4cc(C)ccc4[nH]3)nc2c1 (configuration not stated),1.27,
CSc1cccc(/N=N/N(C)C)c1,2.98,
CC1(C)N=C(N)N=C(N)N1c1ccc(F)cc1,,logD (pH 13.0): 0.37
O=P(c1ccccc1)(c1ccccc1)c1ccccc1,2.85,
CC(=O)Nc1ccc(Cl)c(Cl)c1,2.96,
